Results: the CheMixHub viscosity set

Test: xn = mol fraction of the nth substance listed

CCCCCCCCCCCC + CCCCCC
Settings | viscosity [mPa·s]
293.15 K, 100 kPa, x2 = 0.0986 | 1.294
293.15 K, 100 kPa, x2 = 0.2 | 1.18
293.15 K, 100 kPa, x2 = 0.2024 | 1.137
293.15 K, 100 kPa, x2 = 0.2991 | 1.003
293.15 K, 100 kPa, x2 = 0.4 | 0.89
293.15 K, 100 kPa, x2 = 0.4003 | 0.864
293.15 K, 100 kPa, x2 = 0.5036 | 0.746
293.15 K, 100 kPa, x2 = 0.6 | 0.67
293.15 K, 100 kPa, x2 = 0.6025 | 0.635
293.15 K, 100 kPa, x2 = 0.7016 | 0.538
293.15 K, 100 kPa, x2 = 0.8 | 0.47
293.15 K, 100 kPa, x2 = 0.8003 | 0.453
293.15 K, 100 kPa, x2 = 0.899 | 0.382
298.1 K, 100 kPa, x2 = 0.5 | 0.719
298.15 K, 100 kPa, x2 = 0.0986 | 1.188
298.15 K, 100 kPa, x2 = 0.2024 | 1.049
298.15 K, 100 kPa, x2 = 0.2991 | 0.929
298.15 K, 100 kPa, x2 = 0.4003 | 0.803
298.15 K, 100 kPa, x2 = 0.5036 | 0.697
298.15 K, 100 kPa, x2 = 0.6025 | 0.596
298.15 K, 100 kPa, x2 = 0.7016 | 0.508
298.15 K, 100 kPa, x2 = 0.8003 | 0.429
298.15 K, 100 kPa, x2 = 0.899 | 0.363
298.15 K, 101 kPa, x1 = 0.1924 | 0.4343
298.15 K, 101 kPa, x1 = 0.4248 | 0.6351
298.15 K, 101 kPa, x1 = 0.605 | 0.8243
298.15 K, 101 kPa, x1 = 0.8064 | 1.067
298.15 K, 101.33 kPa, x1 = 0.0232 | 0.3154
298.15 K, 101.33 kPa, x1 = 0.0783 | 0.3506
298.15 K, 101.33 kPa, x1 = 0.1615 | 0.4067
298.15 K, 101.33 kPa, x1 = 0.1736 | 0.4183
298.15 K, 101.33 kPa, x1 = 0.3209 | 0.5387
298.15 K, 101.33 kPa, x1 = 0.411 | 0.6213
298.15 K, 101.33 kPa, x1 = 0.6005 | 0.8244
298.15 K, 101.33 kPa, x1 = 0.6932 | 0.9294
298.15 K, 101.33 kPa, x1 = 0.8557 | 1.137
298.15 K, 101.33 kPa, x1 = 0.9271 | 1.241
298.15 K, 101.33 kPa, x2 = 0.1128 | 1.196
298.15 K, 101.33 kPa, x2 = 0.2137 | 1.047
298.15 K, 101.33 kPa, x2 = 0.3024 | 0.9328
298.15 K, 101.33 kPa, x2 = 0.4043 | 0.8164
298.15 K, 101.33 kPa, x2 = 0.5067 | 0.7076
298.15 K, 101.33 kPa, x2 = 0.6062 | 0.6105
298.15 K, 101.33 kPa, x2 = 0.7222 | 0.5009
298.15 K, 101.33 kPa, x2 = 0.8039 | 0.4331
298.15 K, 101.33 kPa, x2 = 0.9037 | 0.3631
298.27 K, 101.3 kPa, x1 = 0.4998 | 0.7168
298.47 K, 101.3 kPa, x1 = 0.2499 | 0.4774
298.47 K, 101.3 kPa, x1 = 0.7481 | 1.002
303.15 K, 100 kPa, x2 = 0.0986 | 1.095
303.15 K, 100 kPa, x2 = 0.2024 | 0.971
303.15 K, 100 kPa, x2 = 0.2991 | 0.864
303.15 K, 100 kPa, x2 = 0.4003 | 0.75
303.15 K, 100 kPa, x2 = 0.5036 | 0.653
303.15 K, 100 kPa, x2 = 0.6025 | 0.561
303.15 K, 100 kPa, x2 = 0.7016 | 0.479
303.15 K, 100 kPa, x2 = 0.8003 | 0.407
303.15 K, 100 kPa, x2 = 0.899 | 0.352
303.57 K, 101.3 kPa, x1 = 0.7481 | 0.9319
303.58 K, 101.3 kPa, x1 = 0.2499 | 0.4512
308.12 K, 101.3 kPa, x1 = 0.7481 | 0.8716
308.15 K, 100 kPa, x2 = 0.0986 | 1.013
308.15 K, 100 kPa, x2 = 0.2024 | 0.902
308.15 K, 100 kPa, x2 = 0.2991 | 0.805
308.15 K, 100 kPa, x2 = 0.4003 | 0.702
308.15 K, 100 kPa, x2 = 0.5036 | 0.613
308.15 K, 100 kPa, x2 = 0.6025 | 0.529
308.15 K, 100 kPa, x2 = 0.7016 | 0.453
308.15 K, 100 kPa, x2 = 0.8003 | 0.388
308.15 K, 100 kPa, x2 = 0.899 | 0.334
308.15 K, 101.33 kPa, x1 = 0.0232 | 0.2875
308.15 K, 101.33 kPa, x1 = 0.0783 | 0.3133
308.15 K, 101.33 kPa, x1 = 0.1615 | 0.3656
308.15 K, 101.33 kPa, x1 = 0.1736 | 0.3742
308.15 K, 101.33 kPa, x1 = 0.3209 | 0.4799
308.15 K, 101.33 kPa, x1 = 0.411 | 0.5504
308.15 K, 101.33 kPa, x1 = 0.6005 | 0.7191
308.15 K, 101.33 kPa, x1 = 0.8557 | 0.9709
308.15 K, 101.33 kPa, x1 = 0.9271 | 1.054
308.18 K, 101.3 kPa, x1 = 0.4998 | 0.6313
308.23 K, 101.3 kPa, x1 = 0.2499 | 0.4292
311.42 K, 101.3 kPa, x1 = 0.2499 | 0.4144
313.15 K, 100 kPa, x2 = 0.0986 | 0.941
313.15 K, 100 kPa, x2 = 0.2 | 0.87
313.15 K, 100 kPa, x2 = 0.2024 | 0.841
313.15 K, 100 kPa, x2 = 0.2991 | 0.753
313.15 K, 100 kPa, x2 = 0.4 | 0.69
313.15 K, 100 kPa, x2 = 0.4003 | 0.658
313.15 K, 100 kPa, x2 = 0.5036 | 0.578
313.15 K, 100 kPa, x2 = 0.6 | 0.53
313.15 K, 100 kPa, x2 = 0.6025 | 0.5
313.15 K, 100 kPa, x2 = 0.7016 | 0.43
313.15 K, 100 kPa, x2 = 0.8 | 0.38
313.15 K, 100 kPa, x2 = 0.8003 | 0.37
313.15 K, 100 kPa, x2 = 0.899 | 0.317
318.15 K, 100 kPa, x2 = 0.0986 | 0.876
318.15 K, 100 kPa, x2 = 0.2024 | 0.786
318.15 K, 100 kPa, x2 = 0.2991 | 0.706
318.15 K, 100 kPa, x2 = 0.4003 | 0.619
318.15 K, 100 kPa, x2 = 0.5036 | 0.545
318.15 K, 100 kPa, x2 = 0.6025 | 0.474
318.15 K, 100 kPa, x2 = 0.7016 | 0.409
318.15 K, 100 kPa, x2 = 0.8003 | 0.359
318.15 K, 100 kPa, x2 = 0.899 | 0.302
322.68 K, 101.3 kPa, x1 = 0.4998 | 0.5301
323.08 K, 101.3 kPa, x1 = 0.2499 | 0.3672
323.15 K, 100 kPa, x2 = 0.0986 | 0.819
323.15 K, 100 kPa, x2 = 0.2024 | 0.736
323.15 K, 100 kPa, x2 = 0.2991 | 0.663
323.15 K, 100 kPa, x2 = 0.4003 | 0.584
323.15 K, 100 kPa, x2 = 0.5036 | 0.515
323.15 K, 100 kPa, x2 = 0.6025 | 0.45
323.15 K, 100 kPa, x2 = 0.7016 | 0.389
323.15 K, 100 kPa, x2 = 0.8003 | 0.342
323.15 K, 100 kPa, x2 = 0.899 | 0.287

OCCOCCOCCO + CN(C)C=O
viscosity [mPa·s], 101 kPa
Settings | 293.15 K | 298.15 K | 303.15 K | 308.15 K | 313.15 K | 318.15 K
x1 = 0.025 | 1 | 0.933 | 0.868 | 0.847 | 0.768 | 0.727
x1 = 0.0513 | 1.15 | 1.07 | 0.987 | 0.952 | 0.876 | 0.815
x1 = 0.0791 | 1.33 | 1.24 | 1.13 | 1.08 | 0.997 | 0.921
x1 = 0.1085 | 1.54 | 1.42 | 1.31 | 1.22 | 1.15 | 1.05
x1 = 0.1396 | 1.81 | 1.68 | 1.51 | 1.39 | 1.32 | 1.21
x1 = 0.1726 | 2.12 | 1.95 | 1.76 | 1.6 | 1.52 | –
x1 = 0.2077 | 2.53 | 2.3 | 2.07 | 1.85 | 1.76 | –
x1 = 0.245 | 3.02 | 2.74 | 2.44 | 2.16 | 2.06 | –
x1 = 0.2848 | 3.64 | 3.27 | 2.88 | 2.53 | 2.41 | –
x1 = 0.3274 | 4.45 | 3.93 | 3.45 | 3 | 2.85 | –
x1 = 0.373 | 5.37 | 4.74 | 4.12 | 3.55 | 3.33 | –
x1 = 0.422 | 6.64 | 5.77 | 4.96 | 4.25 | 3.96 | –
x1 = 0.4748 | 8.33 | 7.17 | 6.09 | 5.12 | 4.79 | –
x1 = 0.5318 | 10.3 | 8.94 | 7.5 | 6.17 | 5.77 | –
x1 = 0.5935 | 12.9 | 10.9 | 9.08 | 7.6 | 6.92 | –
x1 = 0.6607 | 16.5 | 13.7 | 11.3 | 9.37 | 8.38 | –
x1 = 0.7339 | 21.2 | 17.4 | 14.2 | 11.6 | 10.3 | –
x1 = 0.8141 | 27.4 | 22.2 | 17.9 | 14.4 | 12.8 | –
x1 = 0.9024 | 35.5 | 28.6 | 22.7 | 17.6 | 15.8 | –
